Laboratory results as given in PubChem BioAssay (NCI).
“And” between values parts separate entries of the source, which are not always exact repeats. Equal values may be shown once.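 Where inhibition never reached the appropriate level, the endpoint shown equals the highest concentration tested. Otherwise, values were interpolated linearly from a five-concentration, 48-hour dose response in 96-well plates. Here, GI50 denotes the concentration required for 50% inhibition of growth. TGI: concentration producing complete growth inhibition.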 Where a SMILES comes first, the peptide text is derived from it. Bridges are numbered along the chain shown (N, C = ends). [ ]: non-standard residue; d: D form. ξ: configuration not given here. ξThr(3R) = C[C@@H](O)C(N)C(=O)O; S5 = C=CCCC[C@](C)(N)C(=O)O

Tests used:
Experiment in all cases: inhibition of tumour cell growth, NCI panel, 48 h
786-0 renal = system: 786-0 renal
HOP-92 NSCLC = system: HOP-92 NSCLC
K-562 leukemia = system: K-562 leukemia
OVCAR-5 ovarian = system: OVCAR-5 ovarian
OVCAR-8 ovarian = system: OVCAR-8 ovarian
SK-MEL-2 melanoma = system: SK-MEL-2 melanoma
T-47D breast = system: T-47D breast
TK-10 renal = system: TK-10 renal
UACC-62 melanoma = system: UACC-62 melanoma
UO-31 renal = system: UO-31 renal

SMILES	GI50 (786-0 renal)	TGI (786-0 renal)	GI50 (HOP-92 NSCLC)	TGI (HOP-92 NSCLC)	GI50 (K-562 leukemia)	TGI (K-562 leukemia)	GI50 (OVCAR-5 ovarian)	TGI (OVCAR-5 ovarian)	GI50 (OVCAR-8 ovarian)	TGI (OVCAR-8 ovarian)	GI50 (SK-MEL-2 melanoma)	TGI (SK-MEL-2 melanoma)	GI50 (T-47D breast)	TGI (T-47D breast)	GI50 (TK-10 renal)	TGI (TK-10 renal)	GI50 (UACC-62 melanoma)	TGI (UACC-62 melanoma)	GI50 (UO-31 renal)	TGI (UO-31 renal)
CCN(CC)CCC(CNc1ccnc2cc(Cl)ccc12)c1ccccc1 (stereo not given)	3.69 µM	13.5 µM	4.51 µM	21 µM	1.46 µM	5.61 µM	16.9 µM	73.3 µM	5.05 µM	20.5 µM	1.95 µM	4.06 µM	2.85 µM	8.08 µM	2.11 µM	6.27 µM	2.04 µM	5.05 µM	2.72 µM	14.3 µM
NC(=O)CC1(O)C=C(Br)C(=O)C(Br)=C1	8.76 µM	> 35.7 µM	1.85 µM	4.26 µM	2.22 µM	8.73 µM	8.08 µM	21.4 µM	2.88 µM	9.42 µM	5.21 µM	18.4 µM	2.57 µM	7.87 µM	1.65 µM	4.2 µM	4.21 µM	15.8 µM	2.17 µM	11.2 µM
Nc1cc(C(F)(F)F)c(-c2cc(N3CCOCC3)nc(N3CCOCC3)n2)cn1	1.65 µM and 2.1 µM	9.77 µM and 8.63 µM	0.162 µM and 0.0723 µM	1.17 µM and 0.617 µM	0.875 µM and 0.58 µM	> 100 µM	0.692 µM and 0.848 µM	7.16 µM and 8.7 µM	1.67 µM and 1.55 µM	> 9.24 µM and 11.8 µM	0.678 µM and 0.385 µM	3.39 µM and 2.27 µM	0.145 µM and 0.273 µM	0.77 µM and 1.31 µM	0.303 µM and 0.338 µM	2.75 µM and 2.15 µM	0.318 µM and 0.375 µM	1.99 µM and 2.92 µM	0.309 µM and 0.527 µM	
Cc1ccc(-c2nc3cc(Cl)c(Cl)cc3nc2C#N)cc1	47.5 µM	> 100 µM	40.5 µM	> 100 µM	> 100 µM	> 100 µM	46.2 µM	> 100 µM	> 100 µM	> 100 µM	> 100 µM	> 100 µM	> 100 µM	> 100 µM	49.2 µM	> 100 µM	> 100 µM	> 100 µM	> 100 µM	> 100 µM
CC(c1ccccc1)[C@@H](C(=O)Nc1ccc(I)cc1F)N1C(=O)N[C@H](c2ccc(OC[C@H](O)CO)cc2)C1=O (stereo not given in full)	> 14.4 µM	> 25 µM	0.552 µM	7.03 µM	9.38 µM	> 25 µM	1.03 µM	> 25 µM	> 15.9 µM	> 25 µM	0.158 µM	1.51 µM	10.2 µM	> 25 µM	4.86 µM	> 25 µM	0.0551 µM	2.25 µM	9.91 µM	> 25 µM
CC(=O)N[C@H](C(=O)N[C@@H](CCCNC(=N)N)C(=O)N[C@@H](CCCCN)C(=O)N[C@@H](CCCNC(=N)N)C(=O)NC(C(=O)N[C@@H](CC(C)C)C(=O)N[C@@H](CCCNC(=N)N)C(=O)N[C@@]1(C)CCC/C=C\CCC[C@@](C)(C(=O)N[C@@H](CCCNC(=N)N)C(=O)N[C@@H](CCC(=O)O)C(=O)N[C@@H](CC(C)C)C(=O)N[C@H](C(=O)N[C@@H](CCC(=O)O)C(N)=O)C(C)C)NC(=O)[C@H](CCC(N)=O)NC(=O)[C@H](CC(C)C)NC(=O)[C@H](CC(C)C)NC1=O)[C@@H](C)O)C(C)C (stereo partly drawn) (Ac-VRKR[ξThr(3R)]LR[S5]LLQ[S5]RELVE-NH2; staple (Z) 8-12)	4.2 µM	12.6 µM	2.45 µM	8.89 µM	9.12 µM	19.7 µM	8.96 µM	18.1 µM	2.14 µM	8.32 µM	4.73 µM	17.2 µM	1.05 µM	2.68 µM	1.33 µM	4.38 µM	1.13 µM	2.81 µM	9.2 µM	17.5 µM
COc1cc(/C=C/C(=O)N2CCC=CC2=O)cc(OC)c1OC	2.41 µM	7.03 µM	2.29 µM	4.61 µM	2.98 µM	> 100 µM	2.77 µM	8.68 µM	2.86 µM	8.17 µM	2.53 µM	7.09 µM	2.56 µM	8.51 µM	2.99 µM	6.76 µM	1.85 µM	3.82 µM	1.78 µM	5.09 µM
O=CNc1ccc(S(=O)(=O)c2ccc(NC=O)cc2)cc1		> 100 µM		> 100 µM		> 100 µM		> 100 µM		> 100 µM		> 100 µM		> 100 µM		> 100 µM		> 100 µM		> 100 µM
O=C(COc1ccc(OCC(=O)N2C(=O)CN(c3ccccc3)C2=S)cc1)N1C(=O)CN(c2ccccc2)C1=S	> 25 µM	> 100 µM		> 100 µM	> 25 µM	> 100 µM	> 25 µM	> 100 µM	> 25 µM	> 100 µM	> 25 µM	> 100 µM	> 25 µM	> 100 µM	> 25 µM	> 100 µM	> 25 µM	> 100 µM	> 25 µM	> 100 µM
COC1=C(OC)C(=O)C(Sc2ccc3ccccc3c2)=CC1=O		16.3 µM		45.6 µM		10.3 µM		37.2 µM		82.4 µM		31.4 µM		35.8 µM		27 µM		20.5 µM		16.3 µM
Nc1nnnc2nc[nH]c12	0.96 µM	> 100 µM	0.622 µM	> 100 µM	3.72 µM	> 100 µM	0.623 µM	> 100 µM	1.26 µM	> 100 µM	1.06 µM	42.4 µM	0.297 µM	2.55 µM	0.5 µM	> 41.5 µM	0.637 µM	2.72 µM	0.523 µM	> 100 µM
CCN(CC)c1ccc2nc3c4ccccc4c(=O)cc-3n(-c3ccccc3)c2c1	2.66 µM	8.86 µM	1.24 µM	4.78 µM	2.41 µM	> 100 µM	2.92 µM	> 100 µM	1.75 µM	5.11 µM	1.42 µM	3.95 µM	0.194 µM	0.87 µM	1.77 µM	5.63 µM	1.36 µM	4.31 µM	0.786 µM	3.48 µM
Cc1c(-c2ccc(O)cc2)oc(=O)c2ccc(O)cc12	50.7 µM	> 100 µM	> 100 µM	> 100 µM	38.5 µM	> 100 µM	> 100 µM	> 100 µM	83.8 µM	> 100 µM	> 100 µM	> 100 µM	> 100 µM	> 100 µM	27.4 µM	> 100 µM	35.2 µM	> 100 µM	69.9 µM	> 100 µM
O=c1ccc(=O)n(-c2ccccc2)[nH]1		> 100 µM		> 100 µM		> 100 µM		> 100 µM		> 100 µM		> 100 µM		> 100 µM		> 100 µM		> 100 µM		> 100 µM
COc1cccc(C2=C(c3cn(C)c4cc(F)ccc34)C(=O)NC2=O)c1	> 18.7 µM	> 25 µM	> 25 µM	> 25 µM	12.4 µM	> 25 µM	> 25 µM	> 25 µM	> 18.2 µM	> 25 µM	> 19.4 µM	> 25 µM	15.3 µM	> 25 µM	> 16.9 µM	> 25 µM	14.3 µM	> 25 µM	9.19 µM	> 25 µM
NC1=NC(=O)/C(=C/c2ccc3ncccc3c2)S1	> 25 µM	> 25 µM	> 25 µM	> 25 µM	> 25 µM	> 25 µM	> 25 µM	> 25 µM	> 25 µM	> 25 µM	> 20.7 µM	> 25 µM	> 15.6 µM	> 25 µM	> 25 µM	> 25 µM	> 25 µM	> 25 µM	> 25 µM	> 25 µM
O=C(O)c1c(Cl)c(Cl)c(Cl)c(Cl)c1C(=O)Nc1ccc2cn[nH]c2c1		> 100 µM		> 100 µM		> 100 µM		> 100 µM		> 100 µM		> 100 µM		> 100 µM		> 100 µM		> 100 µM		> 100 µM
COc1cc(/C=C/C(=O)/C=C/c2cc3ccc(Cl)cc3n(Cc3ccccc3)c2=O)ccc1O	1.78 µM	3.58 µM	2.21 µM	5.44 µM	1.89 µM	> 100 µM	2.65 µM	5.78 µM	0.497 µM	11.7 µM	1.92 µM	4.97 µM	2.02 µM	11.5 µM	2.44 µM	5.5 µM	1.29 µM	3.71 µM	1.34 µM	2.64 µM
COc1ccc2nc(-c3ccccc3)cc(Nc3cccc(C(C)=O)c3)c2c1	2.66 µM	9.64 µM	15.2 µM	38.4 µM	7.73 µM	> 100 µM	13.1 µM	29.9 µM	2.23 µM	14.8 µM	38.8 µM	> 100 µM	13.4 µM	> 100 µM	12.6 µM	28.5 µM	15.4 µM	31.4 µM	22.8 µM	> 100 µM
Cc1nc(-c2cnc(NC(C)C)n(C)c2=O)ccc1Oc1ccnc(-c2cnn(C)c2)c1	25.7 µM	> 100 µM	7.44 µM	53.1 µM	1.64 µM	9.33 µM	19.4 µM	> 100 µM	21.3 µM	> 100 µM	12 µM	52.8 µM	7.39 µM	99.7 µM	16 µM	75.4 µM	4.84 µM	45.7 µM	15.7 µM	> 100 µM
C/C(=N/O)c1ccc2c(c1)/C(=N/O)c1ccccc1-2	20.5 µM	38.5 µM	27.8 µM	60 µM	15.8 µM	32.4 µM	22.8 µM	53.5 µM	21.4 µM	46.4 µM	23.1 µM	48 µM	24 µM	52.7 µM	26.7 µM	67.2 µM	18.3 µM	37.5 µM	18.7 µM	38.2 µM
CCCCCCCCCCCCCCCCCCOc1ccccc1CC(=O)OCC[N+](CC)(CC)CC	1.64 µM	7.54 µM	1.1 µM	3.52 µM	1.5 µM	50 µM	2 µM	8.52 µM	1.69 µM	8.3 µM	1.28 µM	3.13 µM	1.48 µM	8.16 µM	1.45 µM	7.65 µM	1.16 µM	3.37 µM	5.52 µM	14.5 µM
CCOc1ccc2c(c1)CN(Cc1ccc(Cl)cc1)CO2	14.8 µM	30.1 µM	8.63 µM	36.8 µM	17 µM	57 µM	17.9 µM	46.2 µM	18 µM	38.3 µM	18 µM	34 µM	17.8 µM	52.7 µM	19 µM	64.8 µM	16.1 µM	31.2 µM	8.82 µM	43.8 µM
ClCc1ccc(Cn2cnc3c(Cl)ncnc32)cc1		> 20 µM	8.48 µM	39.9 µM	15.4 µM	> 63 µM	18.2 µM	34.7 µM	16.5 µM	44.2 µM	19.7 µM	> 92.8 µM		> 100 µM	11.3 µM	23.6 µM	9.76 µM	19.5 µM		> 21.5 µM
CCCCN=C(N)c1ccc(N2CCCN(c3ccc(C(N)=NCCCC)cc3)CC2)cc1	> 74.6 µM	> 100 µM	14.6 µM	> 84 µM	3.69 µM	> 100 µM	45.7 µM	> 100 µM	14.1 µM	> 100 µM	12.3 µM	44.6 µM	10.9 µM	> 100 µM	11.4 µM	> 84.7 µM	7.58 µM	27.5 µM	> 66.1 µM	> 100 µM
CCN(CC)c1ccc(C2NC(=O)c3ccccc3N2)cc1 (stereo not given)		> 41.2 µM		66.5 µM		> 100 µM		> 100 µM		> 100 µM		> 100 µM		> 100 µM		> 100 µM		> 100 µM		> 100 µM
